Test results taken from patent publication US12653873B2, “Peptide antigens and uses thereof” (HUMANITAS MIRASOLE S.P.A., priority 2019, dated 2026).

Tests used:
Assay type in all cases: in vivo, mouse
C57BL6/J mice [1] = assay: Immunization of healthy mice with single peptides in CFA/IFA, echocardiography; conditions: echocardiography at 2, 5 and 9 weeks after first subcutaneous injection; 100 μg peptide in CFA day 0, IFA boost day 21; vs CTR-
Procedure: C57BL6/J 8-week-old male mice were screened at baseline for heart functionality, via echocardiography, and randomly divided into 5 experimental groups. Mice belonging to control group (CTR−, only CFA) were injected subcutaneously (immunized, but without antigen: negative control) with 100 μl Complete Freud's Adjuvant (CFA) at day 0 and boosted with 100 μl of Incomplete Freud's Adjuvant (IFA) on day 21. Mice belonging to group 3 (CTR+) were injected subcutaneously (immunized, known antigen: positive control) with 100 μg of each of the three peptides (SEQ ID NOs. 15-17) derived from beta-adrenergic receptor and listed in the Table of FIG. 4, emulsified in Complete Freud's Adjuvant (CFA) at day 0 and boosted with 100 μg of the three peptides emulsified in Incomplete Freud's Adjuvant (IFA) on day 21. Mice belonging to group 4_A (Peptide 4_A) were injected subcutaneously (immunized) with 100 μg of the peptide of SEQ ID NO. 1, derived from 14-3-3 protein, emulsified in Complete Freud's Adjuvant (CFA) at day 0 and boosted with 100 μg of each of the three peptides emulsified in Incomplete Freud's Adjuvant (IFA) on day 21. Mice belonging to group 4_B (Peptide 4_B) were injected subcutaneously (immunized) with 100 μg of the peptide of SEQ ID NO. 5, derived from Snrpd1 protein, emulsified in Complete Freud's Adjuvant (CFA) at day 0 and boosted with 100 μg of each of the three peptides emulsified in Incomplete Freud's Adjuvant (IFA) on day 21. Mice belonging to group 4_C (Peptide 4_C) were injected subcutaneously (immunized) with 100 μg of the peptide of SEQ ID NO. 14, derived from Atp5o protein, emulsified in Complete Freud's Adjuvant (CFA) at day 0 and boosted with […] of each of the three peptides emulsified in Incomplete Freud's Adjuvant (IFA) on day 21. On day 0 and day 2, all the mice were intraperitoneally injected with 200 ng of Pertussis Toxin. Heart functionality of all mice was analyzed via echocardiography at 2, 5 and 9 weeks after the first subcutaneous injection. In FIG. 7, the results of echocardiography analysis of cardiac functionality parameters % FS and % EF of C57BL6/J mice immunized with the peptide of SEQ ID NO. 1 (14-3-3 protein), the peptide of SEQ ID NO. 5 (Snrpd1 protein), or the peptide of SEQ ID NO. 14 (Atp5o protein) are shown. […] Data are plotted as mean±SEM, (n=4-6). Two-way ANOVA and Tukey's multiple comparison test with matching subjects. * p<0.05, ** p<0.01, ***p<0.001.

C57BL6/J mice [2] = assay: Immunization of healthy mice with pooled peptides in CFA/IFA, echocardiography; conditions: echocardiography at 2, 5 and 9 weeks after first subcutaneous injection; 100 μg of each peptide in CFA day 0, IFA boost day 21; vs CTR- (only CFA)
Procedure: In order to validate the functional relevance of identified antigens recognized by T cells driving HF, the inventors conducted the experiments as described below and schematically represented in FIG. 5.
Briefly, C57BL6/J 8-week-old male mice were screened, via echocardiography, at baseline for heart functionality and randomly divided into three experimental groups. Mice belonging to the negative control group (CTR−, only CFA) were injected subcutaneously (immunized) with 100 μl Complete Freud's Adjuvant (CFA) at day 0 and boosted with 100 μl of Incomplete Freud's Adjuvant (IFA) on day 21, without any antigen. […] Heart functionality of all mice was analyzed via echocardiography at 2, 5 and 9 weeks after the first subcutaneous injection.
The immunization experiments of healthy mice with peptides derived from beta-adrenergic receptor and from 14-3-3, Snrpd1, and Atp5o lead to cardiac dysfunction. […] Left ventricle functionality was measured as % FS (FIG. 6A) and Ejection Fraction (% EF) (FIG. 6B), which measure the volumetric capacity of the left ventricle to pump blood. […]

TAC-operated mice = assay: Oral tolerance protocol followed by induction of Heart Failure via TAC, echocardiography; conditions: oral gavage 0.8 mg per day of each peptide for 4 days, TAC on day 7; 8 weeks after surgery; vs PBS alone
Procedure: To assess preventive protection potential of oral tolerance with the newly identified peptides from the development of Heart Failure, the inventors pursued an oral tolerance protocol to induce cardio-specific tolerance for the peptides, followed by active induction of Heart Failure via TAC.
Briefly, C57BL6/J 8-week-old male mice were screened at baseline via echocardiography. Each mouse was orally fed with 0.8 mg of each peptide from group 4: the peptide of SEQ ID NO. 1 (14-3-3 protein), the peptide of SEQ ID NO. 5 (Snrpd1 protein), and the peptide of SEQ ID NO. 14 (Atp5o protein) (i.e. 0.8 mg per day of each peptide, thus 2.4 mg/day in total), diluted in 600 μl of Phosphate Buffered-Saline (PBS) or plain PBS (as control) via oral feeding (oral gavage) for 4 days in a row. Three days after the end of this procedure, on day 7, the mice underwent TAC surgery, to experimentally induce Heart Failure. Echocardiographies were performed on both groups of mice to monitor their cardiac functionality at 2, 4 and 8 weeks after TAC-surgery. […] Data were plotted as mean±SEM, (n=8-11). Two-way ANOVA and Tukey's multiple comparison test with matching subjects. ** p<0.01, ***p<0.001.

[3] = test system: Aldehyde dehydrogenase (ALDH); assay: Aldefluor FACS analysis of dendritic cells from mesenteric lymph nodes after oral tolerance induction; conditions: eight weeks after oral tolerance induction in TAC-operated mice; vs PBS alone
Procedure: Briefly, eight weeks after oral tolerance induction in TAC-operated mice, mesenteric lymph nodes (MLN) were collected and dendritic cells (DC) were isolated for FACS analysis. Aldehyde dehydrogenase (ALDH) production of retinoic acid from the DC was measured via Aldefluor Fluorescent dye. FACS analysis of DC isolated from MLN of mice fed with the peptides of SEQ ID NO. […] Retinoic acid produced by tolerogenic DC contributes to Regulatory T cell (Treg) generation, essential for tolerance induction. […] Data are plotted as mean±SEM, (n=7-8). Unpaired t-test. * p<0.05.

Substance	% EF (C57BL6/J mice [1])	% FS (C57BL6/J mice [1])	cardiac functionality, % FS (C57BL6/J mice [2])	cardiac functionality, Ejection Fraction (% EF) (C57BL6/J mice [2])	cardiac functionality, % EF (TAC-operated mice)	cardiac functionality, % FS (TAC-operated mice)	ALDH activity of DC isolated from MLN [3]	mean fluorescence intensity (MFI) of Aldefluor dye in DC [3]	percentage of ALDH positive DC [3]
Peptide 4_A: peptide of SEQ ID NO. 1, derived from 14-3-3 protein (LGLALNFSVFYYEIL; listed as Homo sapiens)	significantly reduced	significantly reduced							
Peptide 4_C: peptide of SEQ ID NO. 14, derived from mouse Atp5o protein (LTANLMNLLAENGRL; listed as Mus musculus)	significantly reduced	significantly reduced							
Group 4: combination of the three peptides of SEQ ID NOs. 1, 5 and 14, derived from murine 14-3-3, Snrpd1 and Atp5o proteins (chain 1 LGLALNFSVFYYEIL; chain 2 EPVQLETLSIRGNNIRYFILPDSLP; chain 3 LTANLMNLLAENGRL; listed as Homo sapiens, listed as Mus musculus)			significant reduction of cardiac functionality	significant reduction of cardiac functionality	significantly better cardiac functionality	significantly better cardiac functionality	significant increase in ALDH activity	significant increase	significant increase
Peptide 4_B: peptide of SEQ ID NO. 5, derived from Snrpd1 protein (EPVQLETLSIRGNNIRYFILPDSLP; listed as Homo sapiens)	significantly reduced	significantly reduced							
